Patent publication US5525595A, “3- or 4-glycosyloxybenzopyran derivative and antiallergic agent containing the derivative as active ingredient” (priority 1993, dated 1996)

Assays:
[1] = test system: homologous passive cutaneous anaphylaxis (PCA) reaction; experiment: Effect on homologous passive cutaneous anaphylaxis (PCA) reaction in rats; assay type: in vivo, rats (Male wistar rats); conditions: for inhibition in vivo at 100 mg/kg: Rattus norvegicus, 0.5 h, 100 mg/kg oral, 1 hour before antigen, rats, Table 3; for Inhibition (%) of PCA reaction, compared compounds: Comparative Test Example 1, Table 5, compared compounds of EP-A-0598117
Description: This experimental animal model is caused by immediate type allergic reaction, namely, antigen-antibody reaction. In the following, the method of this pharmacological test will be explained.
Method: Male wistar rats (9 weeks old) were intradermally administered 0.05 ml of anti-serum against trinitrophenylated ascaris (TNP-As) into two sites on the shaved dorsal skin. 48 hours later, 3-glycosyloxybenzopyran derivatives and 4-glycosyloxybenzopyran derivatives (test compounds) suspended in 0.5% sodium carboxymethylcellulose (CMCNa) were given orally at a dose of 100 mg/kg to the animals. 1 hour after administration of Test compounds, the animals were induced anaphylaxis by injection of saline (1 ml) dissolving 5 mg of Evans Blue and 1 mg of TNP-As into the tail vein of the animals. 30 minutes after induction of anaphylaxis, animals were anesthetized by ether and killed by bleeding, and were flayed dorsal skin. The leakage of dye was assessed by measuring the diameter (mean of shortest and longest diameter) of the blue spot on the inside surface of dorsal skin. As vehicle control group, only 0.5% CMCNa solution was administered orally, and as positive control group, Tranilast suspended in 0.5% CMCNa were administered orally at a dose of 100 mg/kg to the animals with the same method as the test compounds groups. Each experimental group consisted of 5 rats. [formula] In equation 1: A: leakage of dye in vehicle control group
B: leakage of dye in test compound group or in positive control group
The anti-allergic activity of the compounds of the present invention were compared with that of analogous compounds which were published in the Patent (EP-A-0598117) by PCA reaction. This pharmacological test was performed according to the method described in Test Example 1.

[2] = test system: airway resistance in experimental asthma model; experiment: Effect on experimental asthma model in guinea pigs; assay type: in vivo, guinea pigs (Male hadley); conditions: Cavia porcellus; 100 mg/kg oral, OVA challenge, guinea pigs; Table 7
Description: The asthma is typical allergic disease and we carried out this pharmacological test by well known experimental asthma model in guinea pigs in order to confirm that the compounds of the present invention suppress the asthma. In the following, the method of the pharmacological test will be explained.
Method: Male hadley guinea pigs were immunized by intraperitoneal injection of saline (1 ml) containing 5 mg of ovalbumine (OVA) three times at interval of one week. 2 weeks after final immunization, the animals were challenged by inhalation of 1% OVA-saline solution for 1 minute and then the airway resistance of the animals were measured for 30 minutes with PULMOS-1 (Medical Interface Project Station Inc.) after the inhalation. The compounds of the present invention (test compounds) suspended in 0.5% CMCNa were given orally at a dose of 100 mg/kg. As positive control group, Disodium Cromoglicate (DSCG), well known anti-allergic agent, in saline were injected at a dose of 20 mg/kg into the vein of the animals. As vehicle control group, only 0.5% CMCNa solution were given orally. The inhibition (%) of the airway resistance in vehicle control group was calculated according to equation 5 and the result was shown in Table 7. Each experimental group consisted of 5 guinea pigs. [formula] In equation 5: A: Maximum airway resistance in vehicle control group
B: Maximum airway resistance in test compounds group or positive control group

[3] = test system: contact dermatitis induced by picryl chloride; experiment: Effect on contact dermatitis induced by picryl chloride in mice (delayed type hypersensitization); assay type: in vivo; conditions: for inhibition in vivo at 100 mg/kg: ear thickness 24 hours after challenge, Table 6
Description: The delayed type hypersensitization is inhibited by steroid, but can not be effected by known anti-allergic agents. In the following, the method of the pharmacological test will be explained.
Method: Mice, shaved their abdominal skin on previous day, were immunized by applying 0.1 ml of acetone containing 7 mg of picryl chloride to the skin of the abdomen. 7 days after immunization, the thickness of the ear was measured with a dial thickness gauge, then mice were challenged by painting 5 μl of 1% picryl chloride olive oil solution to each side skin of left ear. 24 hours after challenge, the thickness of the left ear was measured again and the increase (%) of thickness was calculated according to equation 2. The compounds of the present invention (test compounds) suspended in 0.5% CMCNa were forcibly administered orally at a dose of 100 mg/kg at 1 hour before and 16 hours after challenge. As vehicle control group, only 0.5% CMCNa solution were administered orally, and as positive control group, Prednisolone, steroid hormone, and Tranilast were administered orally at the doses of 10 mg/kg and 100 mg/kg, respectively.
Increase (%)=(A-B)/B×100 (Equation 2)
A: thickness of the ear at 24 hours after challenge
B: thickness of the ear before challenge
Inhibition(%)=(C-D)/C×100 (equation 3)
C: The increase (%) in vehicle control group
D: The increase (%) in test compounds group or positive control group

[4] = Mus musculus, 100 mg/kg oral, read-out: Inhibition (%) against the increase of ear thickness

Compound	inhibition in vivo at 100 mg/kg [1] [%]	inhibition in vivo at 100 mg/kg [2] [%]	inhibition in vivo at 100 mg/kg [3, 4] [%]	Inhibition (%) of PCA reaction, compared compounds [1] [%]	inhibition of delayed type hypersensitization ([3]; 100 mg/kg oral, in words)	inhibition in vivo at 10 mg/kg ([3]; Mus musculus, po, 24 h, read-out: Inhibition (%) against the increase of ear thickness) [%]
CCCCCCCCOc1ccc2c(O)c(O[C@@H]3O[C@H](CO)[C@H](O)[C@H](O)[C@H]3O)c(=O)oc2c1 [compound 34]	64.3	78.3	64.2			
CC(C)Oc1ccc2c(O[C@@H]3O[C@H](CO)[C@@H](O)[C@H](O)[C@H]3O)c(O)c(=O)oc2c1 [compound 69]	57.2	68.3	56.4			
COc1ccc2c(O[C@@H]3O[C@H](CO)[C@@H](O)[C@H](O)[C@H]3O)c(OC(C)=O)c(=O)oc2c1 [compound 65, 7-methoxy-3-acetoxy-4-(β-D-glucopyranosyloxy)-2H-1-benzopyran-2-one]	45.6	46.9	46.3			
O=C(Oc1ccc2c(O)c(O[C@H]3O[C@H](CO)[C@@H](O)[C@H](O)[C@@H]3O)c(=O)oc2c1)c1ccccc1 [compound 30]	41.7	47.8	48.7			
COc1ccc2c(OC)c(O)c(=O)oc2c1 [Compared compound 3, 3-hydroxy-4,7-dimethoxy-2H-1-benzopyran-2-one, reference compound]				30.6		
CCCCCCCCCCCCOc1ccc2c(O)c(O[C@@H]3O[C@H](CO)[C@H](O)[C@H](O)[C@H]3O)c(=O)oc2c1 [compound 35]	60.1	75.2	61.1			
CC(C)=CCC/C(C)=C/COc1ccc2c(O)c(O[C@H]3O[C@H](CO)[C@@H](O)[C@H](O)[C@@H]3O)c(=O)oc2c1 [compound 29]	45.6	56.1	53.6			
CCCCOc1ccc2c(O)c(O[C@@H]3O[C@H](CO)[C@@H](O)[C@H](O)[C@H]3O)c(=O)oc2c1 [compound 15]	60.4	73.6	58.5			
CC(C)Oc1ccc2c(O)c(O[C@@H]3O[C@H](CO)[C@H](O)[C@H](O)[C@H]3O)c(=O)oc2c1 [compound 36]	56.7	66.4	58.2			
CCCCCCOc1ccc2c(O[C@H]3O[C@H](CO)[C@@H](O)[C@H](O)[C@@H]3O)c(O)c(=O)oc2c1 [compound 122]	52.3	62.1	53.2			
CCCCOc1ccc2c(O[C@H]3O[C@H](CO)[C@@H](O)[C@H](O)[C@@H]3O)c(O)c(=O)oc2c1 [compound 79]	47.1	50.3	46.3			
O=c1oc2cc(O)ccc2c(O[C@@H]2O[C@H](CO)[C@@H](O)[C@H](O)[C@H]2O)c1O [compound 59, 3,7-dihydroxy-4-(β-D-glucopyranosyloxy)-2H-1-benzopyran-2-one]	46.1	49.1	45.6			
O=c1oc2cc(OCc3ccccc3)ccc2c(O[C@@H]2O[C@H](CO)[C@@H](O)[C@H](O)[C@H]2O)c1O [compound 76]	47.7	47.5	46.8			
CCCCCCCCCCCCOc1ccc2c(O[C@@H]3O[C@H](CO)[C@@H](O)[C@H](O)[C@H]3O)c(OC(C)=O)c(=O)oc2c1 [compound 75]	43.3	45.2	46.2			
CCC=CCCOc1ccc2c(O[C@H]3O[C@H](CO)[C@@H](O)[C@H](O)[C@@H]3O)c(O)c(=O)oc2c1 [compound 84]	45.5	47.1	46.3			
CCCCCCCCCCOc1ccc2c(OC)c(O)c(=O)oc2c1 [Compared compound 4, 3-hydroxy-4-methoxy-7-decyloxy-2H-1-benzopyran-2-one, reference compound]				26.4		
CCCCCCCCCCOc1ccc2c(O[C@H]3O[C@H](CO)[C@@H](O)[C@H](O)[C@@H]3O)c(O)c(=O)oc2c1 [compound 81]	48.3	63.1	50.8			
CCCCCCOc1ccc2c(O)c(O[C@H]3O[C@H](CO)[C@@H](O)[C@H](O)[C@@H]3O)c(=O)oc2c1 [compound 44]	53.5	71.2	58.2			
COc1ccc2c(O[C@@H]3O[C@H](CO)[C@H](O)[C@H](O)[C@H]3O)c(OC(=O)c3ccccc3)c(=O)oc2c1 [compound 101]	45.2	56.2	47.2			
COc1ccc2c(O)c(OC)c(=O)oc2c1 [Compared compound 1, 4-hydroxy-3,7-dimethoxy-2H-1-benzopyran-2-one, reference compound]				28.9		
CC(C)=CCC/C(C)=C/COc1ccc2c(O)c(O[C@@H]3O[C@H](CO)[C@H](O)[C@H](O)[C@H]3O)c(=O)oc2c1 [compound 38]	59.6	73.7	57.6			
O=c1oc2cc(O)ccc2c(O[C@@H]2O[C@H](CO)[C@H](O)[C@H](O)[C@H]2O)c1O [compound 91]	40.4	45.1	45.5			
CC(=O)Oc1ccc2c(OCc3ccccc3)c(O[C@@H]3O[C@H](COCc4ccccc4)[C@@H](OCc4ccccc4)[C@H](OCc4ccccc4)[C@H]3OCc3ccccc3)c(=O)oc2c1 [compound 12, 4-benzyloxy-7-acetoxy-3-(tetra-O-benzyl-β-D-glucopyranosyloxy)-2H-1-benzopyran-2-one]	41.3	39.2	40.8			
CC(=O)Oc1ccc2c(O)c(O[C@@H]3O[C@H](CO)[C@@H](O)[C@H](O)[C@H]3O)c(=O)oc2c1 [compound 13, 7-acetoxy-4-hydroxy-3-(β-D-glucopyranosyloxy)-2H-1-benzopyran-2-one]	58.7	57.7	50.4			
CCCCCCCCOc1ccc2c(O)c(OC)c(=O)oc2c1 [Compared compound 2, 3-methoxy-4-hydroxy-7-octyloxy-2H-1-benzopyran-2-one, reference compound]				32.8		
COc1ccc(/C=C/C(=O)Nc2ccccc2C(=O)O)cc1OC [Tranilast, reference compound]	56.2		11.5		did not inhibit delayed type hypersensitization	
C[C@]12C=CC(=O)C=C1CC[C@@H]1[C@@H]2[C@@H](O)C[C@@]2(C)[C@H]1CC[C@]2(O)C(=O)CO [Prednisolone, reference compound]						63.5
